Laboratory results reported in patent US8586611B2 (priority 2005, dated 2013).
Where two headings read alike, the source gives them in different places.

Columns and labels:
Assay type in all cases: in vivo
[1] = tested on: Erysiphe graminis f. sp. tritici; test: Test E: wheat powdery mildew, spray the day before inoculation (disease rating, 100 = 100% disease control)
In short: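 Wheat seedlings sprayed to run-off with compound suspended in acetone/water 50/50 with 250 ppm Trem 014 (200 ppm equivalent to 500 g/ha); inoculated next day with Erysiphe graminis f. sp. tritici spore dust. Kept 7 days at 20° C, then rated 0–100% disease control versus controls.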

Phytophthora infestans [2] = test: whole plant or invertebrate; settings: for Test D disease rating (100 = 100% disease control, 0 = no disease control): tomato late blight
Phytophthora infestans [3] = test: whole plant or invertebrate; settings: for Test C disease rating (100 = 100% disease control, 0 = no disease control): tomato late blight
Plasmopara viticola = test: Test B: grape downy mildew, spray 24 h after inoculation (disease rating, 100 = 100% disease control)
In short: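 Grape seedlings were inoculated with Plasmopara viticola and held 24 h saturated at 20 °C, then sprayed to run-off with compound suspension (acetone/water with 250 ppm Trem 014; 200 ppm ≈ 500 g/ha). After 5 days at 20 °C and 24 h saturation, disease was rated from 0 to 100% control versus untreated.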

[4] = spray the day before inoculation, compounds without asterisk (not 40 or 10 ppm)
[5] = spray 17 h after inoculation, compounds without asterisk (not 40 or 10 ppm)
[6] = spray 24 h after inoculation, compounds without asterisk (not 40 or 10 ppm)
[7] = spray the day before inoculation, tested at 10 ppm
[8] = spray 17 h after inoculation, tested at 10 ppm
[9] = spray 24 h after inoculation, tested at 10 ppm
[10] = spray the day before inoculation, tested at 40 ppm
[11] = sprayed the day before inoculation, 7 days at 20° C., unmarked compounds (no asterisk, not 40 or 10 ppm)
[12] = sprayed 17 h after inoculation, unmarked compounds (no asterisk, not 40 or 10 ppm)
[13] = sprayed the day before inoculation, unmarked compounds (no asterisk, not 40 or 10 ppm)
[14] = sprayed 24 h after inoculation, unmarked compounds (no asterisk, not 40 or 10 ppm)

## C[C@H](c1ccccc1)N(C)C(=O)c1csc(C2CCN(C(=O)Cn3cnc(C4CCCCC4)n3)CC2)n1 [compound 140]
[1]; [4]
  Test E disease rating (100 = 100% disease control, 0 = no disease control): 0%
Phytophthora infestans [2]; [5]
  Test D disease rating (100 = 100% disease control, 0 = no disease control): 0%
Phytophthora infestans [3]; [4]
  Test C disease rating (100 = 100% disease control, 0 = no disease control): 0%
Plasmopara viticola; [6]
  Test B disease rating (100 = 100% disease control, 0 = no disease control): 0%

## Cc1cc(C(F)(F)F)nn1CC(=O)N1CCC(c2nc(C(=O)N(C)C3CCCCC3c3ccccc3)cs2)CC1 (stereo not drawn) [compound 186]
[1]; [7]
  Test E disease rating (100 = 100% disease control, 0 = no disease control): 0%
Phytophthora infestans [2]; [8]
  Test D disease rating (100 = 100% disease control, 0 = no disease control): 58%
Phytophthora infestans [3]; [7]
  Test C disease rating (100 = 100% disease control, 0 = no disease control): 97%
Plasmopara viticola; [9]
  Test B disease rating (100 = 100% disease control, 0 = no disease control): 0%

## Cc1ccc(C)c(CC(=O)N2CCC(c3nc(C(=O)N(C)C(c4ccccc4)C(C)C)cs3)CC2)c1 (stereo not drawn) [compound 96]
[1]; [4]
  Test E disease rating (100 = 100% disease control, 0 = no disease control): 0%
Phytophthora infestans [2]; [5]
  Test D disease rating (100 = 100% disease control, 0 = no disease control): 49%
Phytophthora infestans [3]; [4]
  Test C disease rating (100 = 100% disease control, 0 = no disease control): 100%
Plasmopara viticola; [6]
  Test B disease rating (100 = 100% disease control, 0 = no disease control): 98%

## Cc1cc(C(F)(F)F)nn1CC(=O)N1CCC(c2nc(C(=O)N(C)C3CCCc4occc43)cs2)CC1 (stereo not drawn) [compound 183]
[1]; [7]
  Test E disease rating (100 = 100% disease control, 0 = no disease control): 0%
Phytophthora infestans [2]; [8]
  Test D disease rating (100 = 100% disease control, 0 = no disease control): 16%
Phytophthora infestans [3]; [7]
  Test C disease rating (100 = 100% disease control, 0 = no disease control): 40%
Plasmopara viticola; [9]
  Test B disease rating (100 = 100% disease control, 0 = no disease control): 0%

## Cc1cc(C(F)(F)F)nn1CC(=O)N1CCC(c2nc(C(=O)N(C)C3c4ccccc4CC3(C)C)cs2)CC1 (stereo not drawn) [Compound 222, N-(2,3-dihydro-2,2-dimethyl-1H-inden-1-yl)-N-methyl-2-[1-[[5-methyl-3-(trifluoromethyl)-1H-pyrazol-1-yl]acetyl]-4-piperidinyl]-4-thiazolecarboxamide]
[1]; Blumeria graminis, topical, 168 h, spray the day before inoculation, tested at 40 ppm, read-out: Test E disease rating (100 = 100% disease control, 0 = no disease control)
  pest or weed control at 40 ppm: 0%
Phytophthora infestans [2]; Phytophthora infestans, in Solanum lycopersicum, topical, 96 h, read-out: Test D disease rating (100 = 100% disease control, 0 = no disease control)
  pest or weed control at 40 ppm: 99%
Phytophthora infestans [3]; Phytophthora infestans, in Solanum lycopersicum, 144 h, read-out: Test C disease rating (100 = 100% disease control, 0 = no disease control)
  pest or weed control at 40 ppm: 100%
Plasmopara viticola; Plasmopara viticola, 144 h, spray 24 h after inoculation, tested at 40 ppm, read-out: Test B disease rating (100 = 100% disease control, 0 = no disease control)
  pest or weed control at 40 ppm: 100%

## Cc1cc(C(F)(F)F)nn1CC(=O)N1CCC(c2nc(C(=O)N(C)C3CCC(C)(C)c4ccccc43)cs2)CC1 (stereo not drawn) [compound 199]
[1]; [10]
  Test E disease rating (100 = 100% disease control, 0 = no disease control): 0%
Phytophthora infestans [2]; spray 17 h after inoculation, tested at 40 ppm
  Test D disease rating (100 = 100% disease control, 0 = no disease control): 99%
Phytophthora infestans [3]; [10]
  Test C disease rating (100 = 100% disease control, 0 = no disease control): 100%
Plasmopara viticola; spray 24 h after inoculation, tested at 40 ppm
  Test B disease rating (100 = 100% disease control, 0 = no disease control): 99%

## Cc1cc(C(F)(F)F)nn1CC(=O)N1CCC(c2nc(C(=O)N3CCCC(C)C3)cs2)CC1 (stereo not drawn) [compound 312]
[1]; [11]
  Test E disease rating (100 = 100% disease control, 0 = no disease control): 0
Phytophthora infestans [2]; [12]
  Test D disease rating (100 = 100% disease control, 0 = no disease control): 80
Phytophthora infestans [3]; [13]
  Test C disease rating (100 = 100% disease control, 0 = no disease control): 100
Plasmopara viticola; [14]
  Test B disease rating (100 = 100% disease control, 0 = no disease control): 91

## Cc1cc(C)nc(CC(=O)N2CCC(c3nc(C(=O)N(C)[C@@H]4CCCc5ccccc54)cs3)CC2)c1 [compound 215]
[1]; [4]
  Test E disease rating (100 = 100% disease control, 0 = no disease control): 0%
Phytophthora infestans [2]; [5]
  Test D disease rating (100 = 100% disease control, 0 = no disease control): 99%
Phytophthora infestans [3]; [4]
  Test C disease rating (100 = 100% disease control, 0 = no disease control): 100%
Plasmopara viticola; [6]
  Test B disease rating (100 = 100% disease control, 0 = no disease control): 0%

## Cc1cc(C(F)(F)F)nn1CC(=O)N1CCC(c2nc(C(=O)N(C)C3CC(CO)c4ccccc43)cs2)CC1 (stereo not drawn) [compound 235]
[1]; [4]
  Test E disease rating (100 = 100% disease control, 0 = no disease control): 0%
Phytophthora infestans [2]; [5]
  Test D disease rating (100 = 100% disease control, 0 = no disease control): 99%
Phytophthora infestans [3]; [4]
  Test C disease rating (100 = 100% disease control, 0 = no disease control): 100%
Plasmopara viticola; [6]
  Test B disease rating (100 = 100% disease control, 0 = no disease control): 94%

## Cc1cc(C(F)(F)F)nn1CC(=O)N1CCC(c2nc(C(=O)N3CCC4CCCCC4C3)cs2)CC1 (stereo not drawn) [compound 299]
[1]; [11]
  Test E disease rating (100 = 100% disease control, 0 = no disease control): 0
Phytophthora infestans [2]; [12]
  Test D disease rating (100 = 100% disease control, 0 = no disease control): 96
Phytophthora infestans [3]; [13]
  Test C disease rating (100 = 100% disease control, 0 = no disease control): 99
Plasmopara viticola; [14]
  Test B disease rating (100 = 100% disease control, 0 = no disease control): 83

## Cc1ccc(C)c(CC(=O)N2CCC(c3nc(C(=O)N(C)C4CCCc5occc54)cs3)CC2)c1 (stereo not drawn) [compound 135]
[1]; [4]
  Test E disease rating (100 = 100% disease control, 0 = no disease control): 0%
Phytophthora infestans [2]; [5]
  Test D disease rating (100 = 100% disease control, 0 = no disease control): 47%
Phytophthora infestans [3]; [4]
  Test C disease rating (100 = 100% disease control, 0 = no disease control): 51%
Plasmopara viticola; [6]
  Test B disease rating (100 = 100% disease control, 0 = no disease control): 16%

## Cc1cc(C(F)(F)F)nn1CC(=O)N1CCC(c2nc(C(=O)N(C)C(C)c3ccccc3F)cs2)CC1 (stereo not drawn) [compound 250]
[1]; [7]
  Test E disease rating (100 = 100% disease control, 0 = no disease control): 0%
Phytophthora infestans [2]; [8]
  Test D disease rating (100 = 100% disease control, 0 = no disease control): 71%
Phytophthora infestans [3]; [7]
  Test C disease rating (100 = 100% disease control, 0 = no disease control): 97%
Plasmopara viticola; [9]
  Test B disease rating (100 = 100% disease control, 0 = no disease control): 97%
